Among the test systems are Escherichia coli 078; Candida albicans; Escherichia coli ER2566; Escherichia coli; Escherichia coli K88; Listeria monocytogenes; Escherichia coli UB1005; Candida albicans SC5314; Pseudomonas aeruginosa.
What all share (assay): ≥ marks a high value that may be exact or a test limit, other limits are often not marked, values filed in µg/mL are converted to µM
For test [1], the system named is Erwinia amylovora PMV 6076.
For test [2], the system named is Xanthomonas campestris pv. Vesicatoria 2133-2.
Test [3] relates to Xanthomonas fragariae Xf349-9A.
Test [4] concerns Pseudomonas syringae pv. actinidiae Psa3700.1.1.
Test [5] deals with Pseudomonas syringae pv. syringae EPS 94.
The test system of test [6] is Xanthomonas arboricola pv. pruni CFBP 5563.
The test system of test [7] is Bacillus subtilis ATCC 11060.
In test [8] the test system is Escherichia coli CVCC 1515.
For test [9], the system named is Neisseria gonorrhoeae F-62.
Test [10] deals with Staphylococcus aureus ATCC 25923.
Test [11] deals with Pseudomonas aeruginosa ATCC 27853.
Test [12] has as its system Staphylococcus epidermidis ATCC 12228.
Test [13] concerns Neisseria gonorrhoeae FA-19.
The test system of test [14] is Salmonella enterica subsp. enterica serovar Pullorum C79-13.
Test [15] relates to Escherichia coli CMCC 44102.
The test system of test [16] is Pseudomonas aeruginosa ATCC 21630.
Test [17] has as its system Staphylococcus aureus ATCC 29213.
For test [18], the system named is Salmonella enterica subsp. enterica serovar Typhimurium C77-31.
Test [19] has as its system Pseudomonas aeruginosa ATCC 21625.
The subject of test [20] is Pseudomonas aeruginosa ATCC 10419.
For test [21], the system named is Enterococcus faecalis ATCC 29212.
Test [22] deals with Salmonella enterica subsp. enterica serovar Typhimurium ATCC 14028.
Test [23] deals with Proteus mirabilis ATCC 25933.
In test [24] the test system is Bacillus subtilis ATCC 6633.
The test system of test [25] is Escherichia coli ATCC 8739.
For test [26], the system named is Enterococcus faecalis ATCC 12953.
Test [27] relates to Klebsiella pneumoniae ATCC 13885.
The subject of test [28] is Streptococcus pyogenes ATCC 19615.
In test [29] the test system is Pseudomonas aeruginosa ATCC 15442.
The subject of test [30] is Candida albicans 08022821.
Test [31] deals with Staphylococcus aureus 08A865.
Test [32] relates to Pseudomonas aeruginosa 08031014.
For test [33], the system named is Staphylococcus aureus 08A875.
Test [34] concerns Candida albicans 08022710.
Test [35] relates to Staphylococcus aureus ATCC 2592.
Test [36] relates to Candida albicans ATCC 2002.

Molecules are shown by their SMILES. Values after ≈ are worked out from the molar mass of the structure shown. Values joined by “and” are separate entries in the source; they are usually repeats but may differ in a detail not shown here. Equal values may be shown once.

A word on the MIC: it is the lowest concentration found to suppress growth. Read a low MIC as inhibition by little substance. Consider `CC[C@H](C)[C@H](NC(=O)[C@H](CCCCN)NC(=O)[C@H](CCCCN)NC(=O)[C@H](CC(C)C)NC(=O)[C@H](CC(=O)O)NC(=O)[C@@H](NC(=O)[C@@H](N)Cc1ccccc1)C(C)C)C(=O)N[C@@H](C)C(=O)N[C@@H](CC(N)=O)C(=O)N[C@H](C(=O)N[C@H](C(=O)N[C@@H](CC(N)=O)C(=O)N[C@@H](CO)C(=O)N[C@H](C(=O)N[C@@H](Cc1ccccc1)C(=O)NCC(=O)N[C@@H](CCCCN)C(N)=O)[C@@H](C)CC)[C@@H](C)CC)[C@@H](C)CC` [FVDLKKIANIINSIFGK], for which the MIC is at least 35.4 µM in test [1]; 4.38 µM (≈ 8.41 µg/mL) in [2]; at least 50 µM in [3]; at least 50 µM in test [4]; at least 50 µM in [5]; 2.84 µM (≈ 5.45 µg/mL) in test [6].
As to `CC(C)C[C@H](NC(=O)CNC(=O)CNC(=O)CNC(=O)[C@@H](N)CCCNC(=N)N)C(=O)N[C@H]1CSSC[C@@H](C(=O)N[C@H](C(=O)NCC(=O)N[C@@H](CCCNC(=N)N)C(N)=O)C(C)C)NC(=O)[C@H](C(C)C)NC(=O)[C@@H]2CSSC[C@H](NC(=O)[C@H](Cc3ccc(O)cc3)NC1=O)C(=O)N[C@@H](CCCNC(=N)N)C(=O)N[C@@H](CCCNC(=N)N)C(=O)N[C@@H](CCCNC(=N)N)C(=O)N[C@@H](Cc1ccccc1)C(=O)N2` [RGGGLCYCRRRFCVCVGR], the MIC amounted to 16.1 µM (≈ 33.1 µg/mL) against Escherichia coli 078; 16.1 µM (≈ 33.1 µg/mL) in test [7]; 1.99 µM (≈ 4.09 µg/mL) in [8]; 0.679 µM (≈ 1.4 µg/mL) in [9]; 8.05 µM (≈ 16.6 µg/mL) in test [10]; 4.66 µM (≈ 9.58 µg/mL) in the test on Candida albicans. Further, the MIC came out at 4.03 µM (≈ 8.28 µg/mL) in test [11]; 32.2 µM (≈ 66.2 µg/mL) in test [12]; 0.873 µM (≈ 1.8 µg/mL) in test [13]; 0.485 µM (≈ 0.998 µg/mL) in the test on Escherichia coli ER2566; 1.99 µM (≈ 4.09 µg/mL) in [14]; 1.02 µM (≈ 2.09 µg/mL) in test [15]. For the same molecule, the MIC is 8.05 µM (≈ 16.6 µg/mL) in [16]; 4.03 µM (≈ 8.28 µg/mL) in test [17]; 4.03 µM (≈ 8.28 µg/mL) in test [18]; 1.12 µM (≈ 2.29 µg/mL) against Escherichia coli; 8.05 µM (≈ 16.6 µg/mL) in test [19]; 4.03 µM (≈ 8.28 µg/mL) in test [20]. The MIC came out at 4.03 µM (≈ 8.28 µg/mL) with Escherichia coli K88; 32.2 µM (≈ 66.2 µg/mL) in [21]; 1.99 µM (≈ 4.09 µg/mL) in [22]; 1.36 µM (≈ 2.79 µg/mL) in the test with Listeria monocytogenes; 1.99 µM (≈ 4.09 µg/mL) with Escherichia coli UB1005.
`CC[C@H](C)[C@H](N)C(=O)N[C@@H](Cc1ccc(O)cc1)C(=O)N[C@@H](Cc1ccc(O)cc1)C(=O)N1CCC[C@H]1C(=O)N1CCC[C@H]1C(=O)N[C@@H](CC(N)=O)C(=O)N[C@@H](Cc1cnc[nH]1)C(=O)N[C@@H](CC(N)=O)C(=O)N[C@@H](Cc1ccccc1)C(=O)N1CCC[C@H]1C(N)=O` [IYYPPNHNFP]: the MIC in [23] was at least 101 µM; in [24], at least 203 µM; in [25] it was at least 203 µM; in test [17], 203 µM (≈ 256 µg/mL); in test [26], at least 101 µM; in test [27], at least 101 µM. For the same molecule, the MIC in test [28] is at least 101 µM; in test [22], 203 µM (≈ 256 µg/mL); in test [29], at least 203 µM.
As for `CC[C@H](C)[C@H](NC(=O)[C@H](Cc1cnc[nH]1)NC(=O)[C@H](CO)NC(=O)[C@@H](NC(=O)[C@@H](NC(=O)[C@@H](NC(=O)[C@@H](NC(=O)[C@H](CCCNC(=N)N)NC(=O)[C@H](CC(C)C)NC(=O)[C@H](CCCCN)NC(=O)[C@H](CCC(=O)O)NC(=O)[C@H](CCCCN)NC(=O)[C@H](CC(C)C)NC(=O)[C@H](CCCCN)NC(=O)[C@@H]1CSSC[C@H](NC(=O)[C@H](CCCCN)NC(=O)[C@@H](N)CCCNC(=N)N)C(=O)N[C@@H](CC(N)=O)C(=O)N[C@@H](Cc2ccccc2)C(=O)N[C@@H](CC(C)C)C(=O)N1)[C@@H](C)O)C(C)C)[C@@H](C)CC)[C@@H](C)O)C(=O)N[C@@H](CC(=O)O)C(=O)N[C@@H](CCCCN)C(=O)N[C@H](C(=O)N[C@@H](CC(C)C)C(=O)N[C@@H](CCCNC(=N)N)C(=O)N1CCC[C@H]1C(=O)N[C@@H](CCC(N)=O)C(=O)NCC(=O)O)C(C)C` [RKCNFLCKLKEKLRTVITSHIDKVLRPQG], the MIC in test [30] is 2.74 µM (≈ 9.37 µg/mL); in test [31] it was 2.74 µM (≈ 9.37 µg/mL); in test [24] it was 29.2 µM and 21.9 µM; with Candida albicans, 1.37 µM (≈ 4.69 µg/mL); in test [11], 5.47 µM and > 2.74 µM; in test [32] it was 10.9 µM (≈ 37.5 µg/mL). Besides, the MIC is at least 64 µM against Candida albicans SC5314; 2.74 µM (≈ 9.37 µg/mL) in the test on Pseudomonas aeruginosa; 5.47 µM (≈ 18.7 µg/mL) in test [33]; over 64 µM in test [17]; 1.94 µM (≈ 6.63 µg/mL) against Escherichia coli; 5.47 µM (≈ 18.7 µg/mL) in test [34]. Further, the MIC in test [35] was 2.74 µM and 1.37 µM; in test [36], 1.37 µM and 0.686 µM.

The values above are taken from DBAASP.
